Data from the supplement of paper PMC11451515.

System: NOMO1
Test: cell viability relative to DMSO control; higher = less cytotoxic
Details: 48 h
Outline: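 NOMO1 or SEM cells were plated at 500 cells/well and P12-Ichikawa cells at 1000 cells/well in 1536-well plates (5 μl), after each leukemia line had been adapted for at least four passages in each medium. Pin dosing delivered library compounds in DMSO at 11 threefold concentrations, 47 μM to 0.79 nM. CellTiter-Glo One luminescence was read after 48 h at 37°C. Viability is reported as a per-plate percentage of DMSO wells, with cell-free wells as background.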

[1] = HPLM + 10% dialyzed FBS, 0.000781 µM
[2] = HPLM + 10% dialyzed FBS, 0.00234 µM
[3] = HPLM + 10% dialyzed FBS, 0.00702 µM
[4] = HPLM + 10% dialyzed FBS, 0.0211 µM
[5] = HPLM + 10% dialyzed FBS, 0.0632 µM
[6] = HPLM + 10% dialyzed FBS, 0.19 µM
[7] = HPLM + 10% dialyzed FBS, 0.569 µM
[8] = HPLM + 10% dialyzed FBS, 1.71 µM
[9] = HPLM + 10% dialyzed FBS, 5.12 µM
[10] = HPLM + 10% dialyzed FBS, 15.4 µM
[11] = HPLM + 10% dialyzed FBS, 46.1 µM
[12] = RPMI 5 mM glucose + 10% FBS, 0.000781 µM
[13] = RPMI 5 mM glucose + 10% FBS, 0.00234 µM
[14] = RPMI 5 mM glucose + 10% FBS, 0.00702 µM
[15] = RPMI 5 mM glucose + 10% FBS, 0.0211 µM
[16] = RPMI 5 mM glucose + 10% FBS, 0.0632 µM
[17] = RPMI 5 mM glucose + 10% FBS, 0.19 µM
[18] = RPMI 5 mM glucose + 10% FBS, 0.569 µM
[19] = RPMI 5 mM glucose + 10% FBS, 1.71 µM
[20] = RPMI 5 mM glucose + 10% FBS, 5.12 µM
[21] = RPMI 5 mM glucose + 10% FBS, 15.4 µM
[22] = RPMI 5 mM glucose + 10% FBS, 46.1 µM
[23] = RPMI 5 mM glucose + 10% dialyzed FBS, 0.000781 µM
[24] = RPMI 5 mM glucose + 10% dialyzed FBS, 0.00234 µM
[25] = RPMI 5 mM glucose + 10% dialyzed FBS, 0.00702 µM
[26] = RPMI 5 mM glucose + 10% dialyzed FBS, 0.0211 µM
[27] = RPMI 5 mM glucose + 10% dialyzed FBS, 0.0632 µM
[28] = RPMI 5 mM glucose + 10% dialyzed FBS, 0.19 µM
[29] = RPMI 5 mM glucose + 10% dialyzed FBS, 0.569 µM
[30] = RPMI 5 mM glucose + 10% dialyzed FBS, 1.71 µM
[31] = RPMI 5 mM glucose + 10% dialyzed FBS, 5.12 µM
[32] = RPMI 5 mM glucose + 10% dialyzed FBS, 15.4 µM
[33] = RPMI 5 mM glucose + 10% dialyzed FBS, 46.1 µM

For C1CN\2C[C@@H](\N=C2S1)C3=CC=CC=C3, the cell viability [1] was 101%, the cell viability [2] was 98.4% and the cell viability [3] was 103%. It also gave a cell viability [4] of 96.9%, a cell viability [5] of 104% and a cell viability [6] of 114%. It also gave a cell viability [7] of 102%, a cell viability [8] of 94.8% and a cell viability [9] of 91.3%. It also gave a cell viability [10] of 97.7%, a cell viability [11] of 60.3% and a cell viability [12] of 87.9%. The cell viability [13] was 88.6%, the cell viability [14] was 90.1% and the cell viability [15] was 90.2%. For the same compound, the cell viability [16] was 104%, the cell viability [17] was 88.5% and the cell viability [18] was 89.5%. The cell viability [19] was 90.8%, the cell viability [20] was 95.8% and the cell viability [21] was 91%. The cell viability [22] was 103%, the cell viability [23] was 87.6% and the cell viability [24] was 88.8%. It also gave a cell viability [25] of 85.3%, a cell viability [26] of 90.5% and a cell viability [27] of 93.3%. The cell viability [28] was 88.5%, the cell viability [29] was 86.8% and the cell viability [30] was 99.9%. For the same compound, the cell viability [31] was 84%, the cell viability [32] was 93% and the cell viability [33] was 91.7%.
Cc1cnc(Nc2ccc(CN3CCOCC3)cc2)nc1Nc1cccc([S+](=O)([O-])NC(C)(C)C)c1 showed a cell viability [1] of 87.4%, a cell viability [2] of 98.1% and a cell viability [3] of 99.1%. The cell viability [4] was 86.6%, the cell viability [5] was 81.3% and the cell viability [6] was 86.9%. The cell viability [7] was 93.7%, the cell viability [8] was 75.6% and the cell viability [9] was 48.1%. For the same compound, the cell viability [10] was 15.5%, the cell viability [11] was 10.3% and the cell viability [12] was 67.8%. It also gave a cell viability [13] of 80%, a cell viability [14] of 79.7% and a cell viability [15] of 71.5%. It also gave a cell viability [16] of 75.1%, a cell viability [17] of 74.2% and a cell viability [18] of 78.9%. The cell viability [19] was 68%, the cell viability [20] was 30.8% and the cell viability [21] was 8.44%. The cell viability [22] was 7.72%, the cell viability [23] was 75.4% and the cell viability [24] was 85.6%. The cell viability [25] was 89.4%, the cell viability [26] was 79.2% and the cell viability [27] was 84.4%. The cell viability [28] was 80.8%, the cell viability [29] was 57.8% and the cell viability [30] was 69.8%. It also gave a cell viability [31] of 38.3%, a cell viability [32] of 11.6% and a cell viability [33] of 9.38%.
COc1ccc([S+](=O)([O-])Nc2cccnc2Nc2ccc(O)cc2)cc1 was tested, and the cell viability [12] was 117%, the cell viability [13] was 107% and the cell viability [14] was 116%. For the same compound, the cell viability [15] was 115%, the cell viability [16] was 121% and the cell viability [17] was 101%. The cell viability [18] was 129%, the cell viability [19] was 97.6% and the cell viability [20] was 28.6%. It also gave a cell viability [21] of 23.2%, a cell viability [22] of 29.4% and a cell viability [23] of 119%. The cell viability [24] was 113%, the cell viability [25] was 110% and the cell viability [26] was 111%. The cell viability [27] was 114%, the cell viability [28] was 110% and the cell viability [29] was 116%. For the same compound, the cell viability [30] was 114%, the cell viability [31] was 71.5% and the cell viability [32] was 36%. For the same compound, the cell viability [33] was 33.5%.
Work on CS[C@H]1SC[C@@H]2C(=O)N(C)[C@H](C(C)C)C(=O)OC[C@H](NC(=O)c3cnc4ccccc4n3)C(=O)N[C@H](C)C(=O)N(C)[C@H]1C(=O)N(C)[C@H](C(C)C)C(=O)OC[C@H](NC(=O)c1cnc3ccccc3n1)C(=O)N[C@H](C)C(=O)N2C yielded a cell viability [1] of 90.5%, a cell viability [2] of 92.4% and a cell viability [3] of 81%. The cell viability [4] was 34%, the cell viability [5] was 7.25% and the cell viability [6] was 7.68%. For the same compound, the cell viability [7] was 7.01%, the cell viability [8] was 6.88% and the cell viability [9] was 6.12%. For the same compound, the cell viability [10] was 5.83%, the cell viability [11] was 3.83% and the cell viability [12] was 86.1%. The cell viability [13] was 83%, the cell viability [14] was 92.4% and the cell viability [15] was 44.5%. The cell viability [16] was 5.63%, the cell viability [17] was 5.77% and the cell viability [18] was 5.98%. For the same compound, the cell viability [19] was 5.95%, the cell viability [20] was 5.48% and the cell viability [21] was 4.23%. It also gave a cell viability [22] of 4.39%, a cell viability [23] of 92.6% and a cell viability [24] of 81.1%. It also gave a cell viability [25] of 83.2%, a cell viability [26] of 49.8% and a cell viability [27] of 5.73%. The cell viability [28] was 5.24%, the cell viability [29] was 5.79% and the cell viability [30] was 5.79%. It also gave a cell viability [31] of 5.29%, a cell viability [32] of 4% and a cell viability [33] of 3.33%.
CC(C)Cn1cnc2c(N)nc3ccccc3c21 showed a cell viability [1] of 120%, a cell viability [2] of 124% and a cell viability [3] of 120%. It also gave a cell viability [4] of 116%, a cell viability [5] of 118% and a cell viability [6] of 121%. The cell viability [7] was 117%, the cell viability [8] was 112% and the cell viability [9] was 94.5%. It also gave a cell viability [10] of 102%, a cell viability [11] of 89.4% and a cell viability [12] of 98.9%. The cell viability [13] was 110%, the cell viability [14] was 116% and the cell viability [15] was 109%. For the same compound, the cell viability [16] was 114%, the cell viability [17] was 103% and the cell viability [18] was 108%. The cell viability [19] was 103%, the cell viability [20] was 108% and the cell viability [21] was 95.3%. The cell viability [22] was 105%, the cell viability [23] was 112% and the cell viability [24] was 107%. It also gave a cell viability [25] of 102%, a cell viability [26] of 128% and a cell viability [27] of 109%. For the same compound, the cell viability [28] was 110%, the cell viability [29] was 115% and the cell viability [30] was 103%. It also gave a cell viability [31] of 96%, a cell viability [32] of 98.8% and a cell viability [33] of 100%.
For CC(C)[N+]1(C)C2CCC1CC(OC(=O)C(CO)c1ccccc1)C2.O.[Br-] (stereo not drawn), the cell viability [1] was 129%, the cell viability [2] was 118% and the cell viability [3] was 120%. For the same compound, the cell viability [4] was 117%, the cell viability [5] was 123% and the cell viability [6] was 119%. For the same compound, the cell viability [7] was 148%, the cell viability [8] was 134% and the cell viability [9] was 101%. For the same compound, the cell viability [10] was 58.8%, the cell viability [11] was 21.9% and the cell viability [12] was 103%. It also gave a cell viability [13] of 105%, a cell viability [14] of 95.1% and a cell viability [15] of 118%. The cell viability [16] was 108%, the cell viability [17] was 123% and the cell viability [18] was 101%. The cell viability [19] was 116%, the cell viability [20] was 109% and the cell viability [21] was 92.3%. The cell viability [22] was 48.6%, the cell viability [23] was 115% and the cell viability [24] was 115%. It also gave a cell viability [25] of 119%, a cell viability [26] of 110% and a cell viability [27] of 132%. It also gave a cell viability [28] of 114%, a cell viability [29] of 127% and a cell viability [30] of 121%. The cell viability [31] was 105%, the cell viability [32] was 93.2% and the cell viability [33] was 60.7%.
COc1ccc(C2(C#N)CCC(C(=O)O)CC2)cc1OC1CCCC1 (stereo not drawn) gave a cell viability [1] of 91%, a cell viability [2] of 109% and a cell viability [3] of 95%. The cell viability [4] was 116%, the cell viability [5] was 120% and the cell viability [6] was 123%. For the same compound, the cell viability [7] was 113%, the cell viability [8] was 113% and the cell viability [9] was 111%. The cell viability [10] was 102%, the cell viability [11] was 108% and the cell viability [12] was 82.4%. The cell viability [13] was 91.8%, the cell viability [14] was 84.9% and the cell viability [15] was 87.5%. The cell viability [16] was 94.1%, the cell viability [17] was 96.8% and the cell viability [18] was 96.3%. The cell viability [19] was 85.7%, the cell viability [20] was 101% and the cell viability [21] was 89.6%. It also gave a cell viability [22] of 90.6%, a cell viability [23] of 99.5% and a cell viability [24] of 105%. For the same compound, the cell viability [25] was 98.3%, the cell viability [26] was 102% and the cell viability [27] was 98.2%. For the same compound, the cell viability [28] was 95%, the cell viability [29] was 107% and the cell viability [30] was 101%. The cell viability [31] was 101%, the cell viability [32] was 100% and the cell viability [33] was 105%.
For Cc1cccc(-c2[nH]c(C(C)(C)C)nc2-c2ccc3c(c2)OCO3)n1, the cell viability [1] was 94.7%, the cell viability [2] was 105% and the cell viability [3] was 107%. For the same compound, the cell viability [4] was 114%, the cell viability [5] was 115% and the cell viability [6] was 95.4%. For the same compound, the cell viability [7] was 104%, the cell viability [8] was 114% and the cell viability [9] was 103%. For the same compound, the cell viability [10] was 24%, the cell viability [11] was 11.9% and the cell viability [12] was 97.4%. The cell viability [13] was 106%, the cell viability [14] was 100% and the cell viability [15] was 93.4%. For the same compound, the cell viability [16] was 101%, the cell viability [17] was 92.7% and the cell viability [18] was 100%. It also gave a cell viability [19] of 92.6%, a cell viability [20] of 86.3% and a cell viability [21] of 11.5%. It also gave a cell viability [22] of 8.98%, a cell viability [23] of 101% and a cell viability [24] of 92.1%. The cell viability [25] was 94.4%, the cell viability [26] was 94.3% and the cell viability [27] was 107%. It also gave a cell viability [28] of 86.9%, a cell viability [29] of 92.8% and a cell viability [30] of 97.2%. The cell viability [31] was 97.3%, the cell viability [32] was 13.9% and the cell viability [33] was 9.64%.
